For assay [1] the following is noted: Wong et al. 1986; cited from earlier work.
Assay [2] relates to PC12 cells. In words: LDH assay, glutamate cytotoxicity. Format: cell-based. The following applies: 10 mM glutamate + 750 μM NAC amide, 24 hours; glutamate alone = 100%. As for the experimental part:
LDH assay: For the lactate dehydrogenase (LDH) assay, cells were plated at a density of 2.5×10^5 cells/well in a 24 well collagen-coated culture plate and, after 24 h; the medium was replaced with fresh DMEM medium containing the desired concentration of glutamate and NAC amide. After the desired incubation period, the LDH activity released was determined using the kit as described below. For the MTS assay, cells were plated at a density of 10^5 cells/well in a 24 well collagen-coated plate. At the end of the experiments, cell viability was assayed using the kit as described. The LDH activity assay was performed with the CytoTox96® Non-Radioactive Cytotoxicity Assay kit (Promega, Madison, Wis., USA), which quantitatively measured the activity of LDH, a stable cytosolic enzyme that is released upon cell lysis [Technical Bulletin No. 163, Promega]. […] Absorbance data were collected using a BMG microplate reader (BMG Labtechnologies, Inc., Durham, N.C., USA) at 490 nm. LDH leakage was expressed as the percentage (%) of the maximum LDH release in the cells treated with glutamate alone (100%), according to the formula: […]
To quantify the protection provided by NAC amide, PC12 cells were exposed to 10 mM glutamate in the presence of NAC amide for 24 hours, and then the amount of LDH released was measured using the LDH assay.

Assay [3] deals with PC12 cells. The assay can be described thus: GSH measurement in cells (NPM/HPLC). The assay is classed as cell-based. Here is the method:
Cells were seeded at a density of 80,000 cells/cm^2 on poly-D-lysine coated (0.05 mg/ml) 75 cm^2 flasks (5 ml/flask) for GSH measurement. […] After the incubation period, cells were removed from the cultures and homogenized in serine borate buffer (100 mM Tris-HCl, 10 mM boric acid, 5 mM L-serine, 1 mM DETAPAC, pH 7.4). Twenty (20) μl of the diluted cell homogenate were added to 230 μl of serine borate buffer and 750 μl of NPM (1 mM in acetonitrile). The resulting solutions were incubated at room temperature for 5 min. The reaction was stopped by the addition of 5 μl of 2N HCl. The samples were then filtered through a 0.2 μm Acrodisc filter and injected onto the HPLC system.
[…] Values represent means.+−.SD. Statistically different values of *P<0.05 were determined, compared to control. **P<0.001 compared to glutamate-treated group. ***P<0.05 compared to glutamate-treated group.

In assay [4] the test system is PC12 cells. The assay can be described thus: Cysteine levels in cells. The assay is classed as cell-based. The following applies: NAC amide 750 μM, glutamate 10 mM, 24 h (FIG. 5). As for the experimental part: Cells were plated and grown for 24 hours, and then they were exposed to glutamate (10 mM) in the presence or absence of NAC amide (750 μM). Twenty-four hours later, the cells were harvested and cysteine levels were measured. Values represent means±SD. Statistically different values of *P<0.005 and **P<0.05 were determined, compared to control. ***P<0.05 compared to glutamate-treated group.
GSH measurement: Cellular levels of GSH were determined by using the method as described in Winters R. A. et al., Anal Biochem., 227(1):14-21, 1995. Cells were seeded at a density of 80,000 cells/cm^2 on poly-D-lysine coated (0.05 mg/ml) 75 cm^2 flasks (5 ml/flask) for GSH measurement. After 24 hours, the flasks were incubated with fresh medium containing glutamate (10 mM), or BSO (0.2 mM) or Glu+BSO+NAC amide (750 μM) at […] for another 24 h. After the incubation period, cells were removed from the cultures and homogenized in serine borate buffer (100 mM Tris-HCl, 10 mM boric acid, 5 mM L-serine, 1 mM DETAPAC, pH 7.4). Twenty (20) μl of the diluted cell homogenate were added to 230 μl of serine borate buffer and 750 μl of NPM (1 mM in acetonitrile). The resulting solutions were incubated at room temperature for 5 min. The reaction was stopped by the addition of 5 μl of 2N HCl. The samples were then filtered through a 0.2 μm Acrodisc filter and injected onto the HPLC system.

The subject of assay [5] is red blood cells (RBCs). The following applies: Grinberg et al. 2005; cited from earlier work.

In the case of `CC(=O)N[C@@H](CS)C(=O)O` [NAC, N-acetylcysteine], in assay [1], the “time increased hepatic GSH levels are maintained” value is given as “at least 6 hours”.
N-acetylcysteine amide [NAC amide]: the “% LDH released” value in assay [2] is listed as 28.9%. In addition, the “increase of PC12 cell GSH level compared to the control group” value in assay [3] (750 μM, 24 hour treatment) was “two fold”. Further, the results for the “GSH Levels” value in assay [3] (GLU (10 mM) + BSO (0.2 mM) + NAC amide (750 μM)), in assay [3] (GLU (10 mM) + NAC amide (750 μM)) and in assay [3] (NAC amide (750 μM) alone) were 30 ± 4.3 nM/mg protein, 88 ± 11.0 nM/mg protein and 112 ± 17.8 nM/mg protein, respectively. In assay [3] (glutamate + BSO (0.2 mM)), the “cells' GSH levels maintained in GSH synthesis-arrested cells” value is 56%. Besides, the “cysteine levels compared to the control group” value in assay [4] is on record as “increase”. For the same compound, the “BuOOH-induced intracellular oxidation in red blood cells” value in assay [5] is “inhibit”.

(Values after patent publication US10869846B2, “N-acetylcysteine amide (NAC amide) in the treatment of diseases and conditions associated with oxidative stress” (SENTIENT LIFESCIENCES, INC., priority 2005, dated 2020).)
